Measured values as given in patent US20210100246A1, “PYRIDYL-FORMAMIDINES HAVING A FUNGICIDAL ACTIVITY, THEIR AGRONOMIC COMPOSITIONS AND USE THEREOF” (ISAGRO, S.p.A., priority 2017, published 2021).

How the values were obtained:
wheat seedlings = assay: Phytotoxicity (percentage of leaf necrosis) on wheat seedlings; format: in vivo; conditions: for Phytotoxicity % N.F. (leaf necrosis): wheat seedlings, scale 0-100
Procedure: (§1) Leaves of wheat plants of the Salgemma variety, grown in pots in a conditioned environment at 20° C. and 70% of Relative Humidity (RH) were treated by spraying both sides of the leaves with the compound under examination (see Table 4 hereunder) dispersed in a hydroacetonic solution at 20% by volume of acetone.
At the same time, an evaluation of the phytotoxicity was effected (percentage of leaf necrosis) induced on the wheat seedlings by the application of the products: in this case the evaluation scale ranges from 0 (completely healthy plant) to 100 (completely necrotic plant).

Puccinia Recondita = assay: Preventive fungicidal activity (5 days) against Puccinia Recondita on wheat; format: in vivo; conditions: for Activity P5 NT (reduction of leaf area affected, parts developed during the test) / Activity P5 T (reduction of leaf area affected, parts treated directly) / effectiveness in containing the disease (in words): wheat; for Activity P5 NT (reduction of leaf area affected, parts developed during the test): non-treated parts (NT); for effectiveness in containing the disease (in words): summary of Table 4
Procedure: Determination of the preventive fungicidal activity (5 days) against Puccinia Recondita on wheat.
as §1
After remaining 5 days in a conditioned environment, the plants were sprayed on both sides of the leaves with an aqueous suspension of conidia of Puccinia Recondita (2 mg of inoculum per 1 ml of solution for infection).
After spraying, the plants were kept in a humidity-saturated environment at a temperature ranging from 18 to 24° C. for the incubation period of the fungus (1 day).
At the end of this period, the plants were put in a greenhouse with a relative humidity (RH) of 70% and at a temperature of 18-24° C. for 14 days.
At the end of this period, the external symptoms of the pathogen appeared and it was therefore possible to proceed with the visual evaluation of the intensity of the infection, both on the parts treated directly with the products (T) and on the parts developed during the implementation of the test (NT).
(§2) The fungicidal activity is expressed as a percentage of the reduction, with respect to non-treated seedlings (comparison), in the area of the leaf affected by the disease (100=full effectiveness; 0=zero effectiveness).

Uromyces Appendiculatus = assay: Preventive fungicidal activity (5 days) against Uromyces Appendiculatus on beans; format: in vivo
Procedure: Determination of the preventive fungicidal activity (5 days) against Uromyces Appendiculatus on beans.
(§3) Bean plants cv. Borlotto of Vigevano, grown in pots in a conditioned environment, were treated by spraying both sides with the products under examination in a hydroacetonic solution with 20% by volume of acetone (vol./vol.).
After remaining 5 days in a conditioned environment at 23° C. and 70% of relative humidity, the plants were sprayed on the lower side with an aqueous suspension of spores of Uromyces Appendiculatus (200,000 spores/cc); after remaining 24 hours in a humidity-saturated environment, they were re-transferred to the conditioned environment.
After this period, the external symptoms of the pathogen appeared and it was therefore possible to proceed with the visual evaluation of the intensity of the infection.
as §2

Sphaerotheca Fuliginea = assay: Preventive fungicidal activity (7 days) against Sphaerotheca Fuliginea on cucumbers; format: in vivo
Procedure: Determination of the preventive fungicidal activity (7 days) against Sphaerotheca Fuliginea on cucumbers.
(§4) Cucumber plants cv. Lungo of China, grown in pots in a conditioned environment were treated by spraying both sides with the products under examination in a hydroacetonic solution with 20% by volume of acetone (vol./vol.).
7 days after the treatment, the plants were sprayed on the upper side with an aqueous suspension of spores of Sphaerotheca Fuliginea (200,000 spores/cc); they were then re-transferred to the conditioned environment.
At the end of the period of incubation (8 days), the evaluation of the intensity of the infection was finally effected.
as §2

bean seedlings = assay: Phytotoxicity (percentage of leaf necrosis) on bean seedlings; format: in vivo; conditions: scale 0-100
Procedure: as §3
At the same time, an evaluation of the phytotoxicity was effected (percentage of leaf necrosis) induced on the bean seedlings by the application of the products: in this case the evaluation scale ranges from 0 (completely healthy plant) to 100 (completely necrotic plant).

cucumber seedlings = assay: Phytotoxicity (percentage of leaf necrosis) on cucumber seedlings; format: in vivo; conditions: scale 0-100
Procedure: as §4
At the same time, an evaluation of the phytotoxicity was effected (percentage of leaf necrosis) induced on the cucumber seedlings by the application of the products: in this case the evaluation scale ranges from 0 (completely healthy plant) to 100 (completely necrotic plant).

[1] = Accelerated stability test of 5% solutions in commercial solvents (54° C., 2 weeks, HPLC); format: physicochemical
Procedure: Stability tests of the compositions containing compounds having formula (I) in a solvent
In order to evaluate the chemical stability of the compounds having Formula (I) in a solvent, 5% solutions were prepared, containing 250 mg of compounds Nr. 1, 17, 39 and 40, dissolved in 4.75 g of various commercial solvents used for the preparation of emulsifiable concentrates.
The resulting solutions were put in an oven at 54° C. for 2 weeks (according to Cipac MT 46.1 update 2012) and then analyzed by means of HPLC in order to verify the concentration of the active ingredient contained therein. The percentage of degradation of the compound having Formula (I) was therefore obtained, after the accelerated stability test.

[2] = solvent ADMA 10 (N,N-dimethyldecanamide)
[3] = solvent Alkamuls T/20 (ethoxylated sorbitan monolaurate)
[4] = solvent CME (rapeseed methyl ester)
[5] = solvent FMPC (N-formylmorpholine and propylene carbonate)
[6] = solvent Green 25 (dimethylsulfoxide, acetophenone, 2-ethylhexyl acetate)
[7] = solvent Purasolv BL (butyl lactate)
[8] = solvent RPDE (dimethyl glutarate, dimethyl succinate, dimethyl adipate)

percentage of degradation [1, 2] [%]	percentage of degradation [1, 3] [%]	percentage of degradation [1, 4] [%]	percentage of degradation [1, 5] [%]	percentage of degradation [1, 6] [%]	percentage of degradation ([1]; solvent Propylene carbonate) [%]	Compound	Phytotoxicity % N.F. (leaf necrosis) (wheat seedlings; 125 ppm) [% N.F.]	Phytotoxicity % N.F. (leaf necrosis) (wheat seedlings; 250 ppm) [% N.F.]	Activity P5 NT (reduction of leaf area affected, parts developed during the test) (Puccinia Recondita; 125 ppm) [%]	Activity P5 T (reduction of leaf area affected, parts treated directly) (Puccinia Recondita; 125 ppm) [%]	Activity P5 NT (reduction of leaf area affected, parts developed during the test) (Puccinia Recondita; 250 ppm) [%]	Activity P5 T (reduction of leaf area affected, parts treated directly) (Puccinia Recondita; 250 ppm) [%]	Activity P5 (Uromyces Appendiculatus; 30 ppm) [%]	Activity P5 (Uromyces Appendiculatus; 125 ppm) [%]	Activity P5 (Sphaerotheca Fuliginea; 30 ppm) [%]	Activity P5 (Sphaerotheca Fuliginea; 125 ppm) [%]	symptoms of phytotoxicity on the plant (in words) (wheat seedlings; wheat, summary of Table 4)	effectiveness in containing the disease (in words) (Puccinia Recondita)	Phytotoxicity % N.F. (leaf necrosis) (bean seedlings; 30 ppm) [% N.F.]	Phytotoxicity % N.F. (leaf necrosis) (bean seedlings; 125 ppm) [% N.F.]	further results
						CCN(C)C=Nc1cc(Br)c(OCCC(C)C)nc1C [CR1, N-ethyl-N-methyl-N′-[5-bromo-2-methyl-6-(3-methyl-butyloxy)-3-pyridyl]-formamidine, reference compound]	5	10	20	60	50	80									
						CCN(C)C=Nc1cc(C)c(SCCC(C)C)nc1C [Compound 2]	0	0	85	100	95	100	100	100	99	100	do not show any symptoms of phytotoxicity	effective in containing the disease	0	0	Phytotoxicity % N.F. (leaf necrosis) (cucumber seedlings; 30 ppm): 0 % N.F.; Phytotoxicity % N.F. (leaf necrosis) (cucumber seedlings; 125 ppm): 2 % N.F.
						CCN(C)C=Nc1cc(C)c(SCc2cccc(C(F)(F)F)c2)nc1C [Compound 3, N-ethyl-N-methyl-N′-2,5-dimethyl-6-{[3(trifluoromethyl)benzyl]thio}pyridyl-3-formamidine]			93	100	98	100	100	100	98	100		effective in containing the disease			symptoms of phytotoxicity on the plant (in words) (wheat seedlings; in vivo): do not show any symptoms of phytotoxicity; Phytotoxicity % N.F. (leaf necrosis) (cucumber seedlings; 30 ppm): 1 % N.F.; Phytotoxicity % N.F. (leaf necrosis) (cucumber seedlings; 125 ppm): 3 % N.F.
						CCN(C)C=Nc1cc(Br)c(SCCC(C)C)nc1C [Compound 5]	0	0	45	85	65	100					do not show any symptoms of phytotoxicity	effective in containing the disease			activity compared with CR1 (in words) (Puccinia Recondita; also at low dosages (125 ppm)): more active
1.57	74.78	16	0.79	2.96	0	CCCCCCSc1nc(C)c(N=CN(C)CC)cc1C [Compound 17]	0	0	55	95	65	98	100	100			do not show any symptoms of phytotoxicity	effective in containing the disease	0	0	percentage of degradation [1, 7]: 100%; percentage of degradation [1, 8]: 1.93%
0	79.78	17.31	1.53	1.84	0.61	CCN(C)C=Nc1cc(C)c(SCc2c(F)cccc2F)nc1C [Compound 39]	0	0	88	95	97	98	100	100			do not show any symptoms of phytotoxicity	effective in containing the disease	0	0	percentage of degradation [1, 7]: 100%; percentage of degradation [1, 8]: 1.13%
1.09	81.02	12.76	0	2.82	0	CCN(C)C=Nc1cc(C)c(SCC2CCCCC2)nc1C [Compound 40]	0	0	55	80	70	90	100	100			do not show any symptoms of phytotoxicity	effective in containing the disease	0	0	percentage of degradation [1, 7]: 100%; percentage of degradation [1, 8]: 1.71%
						N-ethyl-N-methyl-N′-[5-bromo-2-methyl-6-[(4-methylpentyloxy]pyridyl-3-formamidine [CR2, reference compound]							80	90	75	85					
